Experimental data taken from US20190359645A1, “2'3'-CYCLIC DINUCLEOTIDES COMPRISING CARBOCYCLIC NUCLEOTIDE” (Institute of Organic Chemistry and Biochemistry ASCR, V.V.I., priority 2018, published 2019).

Target: WT STING (Homo sapiens, UniProt Q86WV6, H232R)
Test: Digitonin assay using 293T wtSTING-FL reporter cells
Assay type: cell-based
Parameters: host or cells: 293T (ATCC CRL-3216), stably transfected; also carries the 4xISRE firefly luciferase reporter
Settings: 293T wtSTING-FL cells, digitonin buffer 30 min, then 5 h, ISRE firefly luciferase reporter; read-out: Digitonin assay EC50 WT STING
Source text: Two complementary oligonucleotides of the sequence […] […] […] […] (SEQ ID NO: 1) and […] […] (SEQ ID NO:2) containing four interferon-sensitive response elements (ISRE) were synthesized by Sigma Aldrich (Czech Republic, Prague). The oligonucleotides were mixed in equal molar amounts, hybridized, and cleaved by restriction endonucleases HindIII (cat. #. R^0104S, NEB, Ipswich, USA) and BglII (cat. # R^0144S, NEB, Ipswich, USA). Ultimately, they were ligated into plasmid pGL4.27 (cat. # E6651, Promega, Madison, USA) linearized with the same enzymes. As a result, the sequence with four ISRE sites was placed upstream of the minimum promoter of firefly luciferase reporter gene.
293T cells (cat. # CRL-3216, ATCC, Manassas, USA) were seeded a day before transfection at density 125,000 cells per cm^2 onto poly-D-lysine (cat. # P6407, Sigma Aldrich, Czech Republic) coated six well plates in antibiotic free DMEM with high glucose (cat. # D5796, Sigma Aldrich, Czech Republic) supplemented with 10% heat inactivated FBS (cat. # S1520, Biowest, Riverside, USA). On the day of transfection, 2.5 μg of the plasmid pUNO1-hSTING-WT (cat. # punol-hstingwt, InvivoGen, San Diego, USA,) encoding human wild type STING (WT STING) was diluted in 125 μL OptiMEM medium (cat. #31985062, ThermoFisher, Waltham, USA) and mixed with 125 μL of the same medium containing 12.5 μL of Lipofectamine 2000 (cat. #11668019, ThermoFisher, Waltham, USA). After 5 minutes incubation at room temperature (RT), 250 μL of the mixture was added dropwise to the cells in one well. Cells were incubated 36 hours at 37° C. with 5% CO2, and then detached with 0.05% Trypsin and 0.22 g/L EDTA (both cat. # L0941, Biowest, Riverside, USA).
Transfected cells were seeded onto poly-D-lysine coated six well plates at density 50,000 cells per 1 cm^2 in DMEM medium with high glucose containing 10% heat inactivated FBS, […] blasticidin (cat. # ant-bl-05, InvivoGen, San Diego, USA), 0.06 mg/ml Penicillin G and 0.1 mg/ml Streptomycin Sulfate (both cat. #. L0018, Biowest, Riverside, USA). The medium was replenished every 3-4 days until visible colonies of cells resistant to blasticidin were formed.
Blasticidin resistant cells stably expressing WT STING were further transfected with […] plasmid following the same procedure as described above. The transfected cells were selected for the resistance to 300 μg/mL hygromycin (cat. #. 10687010, ThermoFisher, Waltham, USA) in DMEM with high glucose containing 10% heat inactivated FBS, […] blasticidin, 0.06 mg/ml Penicillin G and 0.1 mg/ml Streptomycin Sulfate. Homogeneous culture of stably double transfected cells was prepared by limiting dilution of cells in 96 well plates and wells with cells were selected that originated from a single cell. These cells were expanded, and expression of WT STING was confirmed by western blot using monoclonal mouse anti STING antibodies (cat. #. MAB7169, 1:1000 dilution; […] cat. #. HAF007, 1:2000 dilution, both from R&D Systems, Minneapolis, USA), and by induction of firefly luciferase expression in the presence of 50 μM STING agonist 2′3′ cGAMP (cat. # tlrl-nacga23, InvivoGen, San Diego, USA). Genomic DNA from the transfected cells was amplified with primers pUNO1_Seq_F ([…]) (SEQ ID NO:3) and pUNO1_Seq_R ([…]) (SEQ ID NO:4) that were complementary to pUNO1 plasmid and the presence of WT STING gene in the transfected cells was confirmed by DNA sequencing.
293T wtSTING-FL cells were seeded at density of 250,000 cells per cm^2 onto 96 well poly-D-lysine coated plates in 100 μl DMEM with high glucose supplemented with 10% heat inactivated FBS. […]

Sequence of WT STING (Q86WV6 whole entry H232R): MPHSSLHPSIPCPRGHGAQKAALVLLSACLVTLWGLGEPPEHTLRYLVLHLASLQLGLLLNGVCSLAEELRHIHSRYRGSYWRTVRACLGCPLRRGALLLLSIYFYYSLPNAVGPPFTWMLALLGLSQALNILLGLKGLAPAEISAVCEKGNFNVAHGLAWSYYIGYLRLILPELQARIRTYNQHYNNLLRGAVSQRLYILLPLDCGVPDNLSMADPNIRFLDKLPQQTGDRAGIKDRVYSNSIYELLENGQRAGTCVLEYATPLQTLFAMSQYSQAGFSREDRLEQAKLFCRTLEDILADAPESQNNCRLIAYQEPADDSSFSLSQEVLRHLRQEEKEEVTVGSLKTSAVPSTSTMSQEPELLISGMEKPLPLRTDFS

- EC50: 500 nM
Compound: Nc1nc(N)c2ncn([C@@H]3O[C@@H]4COP(=O)(O)OC5C(O)[C@@H](COP(=O)(O)OC4C3O)C[C@H]5n3cnc4c(=O)[nH]c(N)nc43)c2n1 (stereo partly drawn) [Compound 105, (6R,8R,15R,17R)-17-(2-amino-6-oxo-6,9-dihydro-1H-purin-9-yl)-8-(2,6-diamino-9H-purin-9-yl)-3,9,12,18-tetrahydroxy-2,4,7,11,13-pentaoxa-3λ^5,12λ^5-diphosphatricyclo[13.2.1.0^6,10]octadecane-3,12-dione]
